Laboratory results published in patent US8999974B2, “Acyl piperazine derivatives as TTX-S blockers” (Raqualia Pharma Inc., priority 2010, dated 2015).

target: T1, human NaV1.3 (Homo sapiens, UniProt Q9NY46); test: FRET assay (EFS, FDSS) on HEK293 cells expressing human NaV1.3 channels; type: cell-based; conditions: FRET assay, HEK293 cells expressing human NaV1.3; read-out: IC50 against Nav1.3
T1 construct: expressed in transfected cells; host or cells: HEK293
Method: (§1) This screen was used to determine the effects of compounds on human NaV1.3, human Nav1.7, and human Nav1.5 channels, utilising electrical field stimulation (EFS) system in 96-well plate format on FDSS (Hamamatsu Photonics) platform. The change of membrane potential was monitored with FRET dye pair, oxonol (DiSBAC2(3)) and coumarin (CC2-DMPE).
Each HEK293 cells expressing human NaV1.3 channels and HEK293 cells expressing human NaV1.5 channels were grown in T225 flasks, in a 5% CO2 humidified incubator to about 80% confluence. Media composition consisted of Dulbecco's Modified Eagle Medium (high glucose), 10% FCS, 100 units/ml Penicillin, 100 microgram/ml Streptomycin and 500 microgram/ml Geneticine.
(§2) Protocol: • Seeded each cell lines (1×10^5 cells/well) into poly-D-lysine coated 96-well plates prior to experimentation. • Incubated at 37° C. in 5% CO2 for 24 hours. • Washed each well with assay buffer (140 mM NaCl, 4.5 mM KCl, 10 mM D-Glucose, 2 mM CaCl2, 1 mM MgCl2, 10 mM HEPES, pH 7.4 adjusted with NaOH) twice. • Added 1st loading solution containing 10 microM CC2-DMPE and 0.06% Pluronic F-127 in assay buffer. • Incubated the plate at room temperature in dark for 1 hour. • Removed 1st loading solution and added 2nd loading solution containing 15 microM DiSBAC2(3), 0.555 mM VABSC-1 and 0.004% Pluronic F-127 in assay buffer. • Placed the plate under the dark at room temperature for 25 minutes. • Added compound solutions into the assay plate. • Set the assay plate in FDSS and placed an EFS device on the plate. • Measured EFS-induced fluorescent response by FDSS.
(§3) The data were analyzed and reported as normalized ratios of intensities measured at […]. The process of calculating these ratios was performed as follows:
(§4) [formula] This analysis was performed using a computerized specific program designed for FDSS generated data. Fluorescence ratio values were plotted using XLfit to determine an IC50 value for each compound.

T1 sequence (Q9NY46 whole entry): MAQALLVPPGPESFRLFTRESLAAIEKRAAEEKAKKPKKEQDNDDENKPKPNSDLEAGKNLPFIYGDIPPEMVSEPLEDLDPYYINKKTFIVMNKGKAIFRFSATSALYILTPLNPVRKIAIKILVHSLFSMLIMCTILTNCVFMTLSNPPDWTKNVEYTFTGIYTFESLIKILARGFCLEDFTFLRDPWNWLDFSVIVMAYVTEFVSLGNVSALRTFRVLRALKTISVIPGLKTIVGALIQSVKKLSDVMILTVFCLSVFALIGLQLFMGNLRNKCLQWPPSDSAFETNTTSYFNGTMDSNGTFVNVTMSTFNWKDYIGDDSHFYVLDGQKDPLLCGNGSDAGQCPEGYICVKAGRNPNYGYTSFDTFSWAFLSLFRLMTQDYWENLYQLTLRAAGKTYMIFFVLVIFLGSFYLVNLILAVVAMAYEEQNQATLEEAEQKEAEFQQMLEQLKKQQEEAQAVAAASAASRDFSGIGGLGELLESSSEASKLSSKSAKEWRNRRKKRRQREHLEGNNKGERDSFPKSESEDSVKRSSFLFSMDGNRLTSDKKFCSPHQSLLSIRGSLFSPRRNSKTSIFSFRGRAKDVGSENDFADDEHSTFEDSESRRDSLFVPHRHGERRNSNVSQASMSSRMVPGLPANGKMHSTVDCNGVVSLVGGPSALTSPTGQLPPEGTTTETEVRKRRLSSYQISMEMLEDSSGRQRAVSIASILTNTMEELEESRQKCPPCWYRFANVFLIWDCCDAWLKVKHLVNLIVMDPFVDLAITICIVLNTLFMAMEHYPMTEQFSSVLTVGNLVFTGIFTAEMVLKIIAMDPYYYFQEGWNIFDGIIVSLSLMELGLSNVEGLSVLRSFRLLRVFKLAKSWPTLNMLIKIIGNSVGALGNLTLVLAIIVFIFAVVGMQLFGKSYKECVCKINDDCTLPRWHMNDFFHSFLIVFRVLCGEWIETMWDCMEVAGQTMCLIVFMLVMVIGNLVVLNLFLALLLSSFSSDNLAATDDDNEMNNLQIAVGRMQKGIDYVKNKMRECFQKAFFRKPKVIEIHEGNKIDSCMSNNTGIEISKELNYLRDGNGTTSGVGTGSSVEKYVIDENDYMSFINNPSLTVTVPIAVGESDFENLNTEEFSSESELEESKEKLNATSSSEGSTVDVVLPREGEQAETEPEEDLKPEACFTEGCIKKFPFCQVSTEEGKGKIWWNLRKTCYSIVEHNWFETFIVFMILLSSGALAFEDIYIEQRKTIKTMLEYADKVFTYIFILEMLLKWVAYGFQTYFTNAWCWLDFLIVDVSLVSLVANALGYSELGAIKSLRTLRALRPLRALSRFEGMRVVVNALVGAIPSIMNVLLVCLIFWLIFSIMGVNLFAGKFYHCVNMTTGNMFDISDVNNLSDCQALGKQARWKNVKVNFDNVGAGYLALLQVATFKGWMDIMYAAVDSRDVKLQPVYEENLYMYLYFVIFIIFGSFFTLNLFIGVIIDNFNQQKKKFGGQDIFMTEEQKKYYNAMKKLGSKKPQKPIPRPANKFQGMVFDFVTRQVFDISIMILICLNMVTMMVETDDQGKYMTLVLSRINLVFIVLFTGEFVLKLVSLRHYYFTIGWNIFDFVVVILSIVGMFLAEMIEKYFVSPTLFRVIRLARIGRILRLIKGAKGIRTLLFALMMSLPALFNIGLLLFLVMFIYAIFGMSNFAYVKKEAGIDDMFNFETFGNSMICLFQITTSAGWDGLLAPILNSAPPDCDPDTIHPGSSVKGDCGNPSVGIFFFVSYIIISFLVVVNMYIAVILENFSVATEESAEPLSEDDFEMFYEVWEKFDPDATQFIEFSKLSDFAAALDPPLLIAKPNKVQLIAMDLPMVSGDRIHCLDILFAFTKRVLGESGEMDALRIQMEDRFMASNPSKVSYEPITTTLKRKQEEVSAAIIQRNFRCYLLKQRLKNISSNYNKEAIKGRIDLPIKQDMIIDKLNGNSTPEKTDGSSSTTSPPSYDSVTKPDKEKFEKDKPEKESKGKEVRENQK

IC50, < 3 µM:
CC(C)COc1cc(N2CCN(C(=O)c3ccc(-c4cnco4)cc3)CC2)ncn1 [Example 92]
CC(C)COc1cc(N2CCN(C(=O)c3cnn(Cc4ccccc4)c3)CC2)ncn1 [Example 171, (1-benzyl-1H-pyrazol-4-yl)(4-(6-isobutoxypyrimidin-4-yl)piperazin-1-yl)methanone]
Cc1c(C(=O)N2CCN(c3cc(OCC(F)(F)F)ncn3)CC2)cnn1-c1ccccc1 [Example 148, (5-methyl-1-phenyl-1H-pyrazol-4-yl)(4-(6-(2,2,2-trifluoroethoxy)pyrimidin-4-yl)piperazin-1-yl)methanone]
COc1cc(C(=O)N2CCN(c3cc(OCC(F)(F)F)ncn3)CC2)nc2ccccc12 [Example 63, (4-methoxyquinolin-2-yl)(4-(6-(2,2,2-trifluoroethoxy)pyrimidin-4-yl)piperazin-1-yl)methanone]
CC(C)COc1cc(N2CCN(C(=O)C(C)Oc3ccc(F)cc3)CC2)ncn1 (centres unmarked) [Example 48, 2-(4-fluorophenoxy)-1-(4-(6-isobutoxypyrimidin-4-yl)piperazin-1-yl)propan-1-one]
CC(C)COc1cc(N2CCN(C(=O)COc3ccc4cccnc4c3)CC2)ncn1 [Example 127, 1-(4-(6-isobutoxypyrimidin-4-yl)piperazin-1-yl)-2-(quinolin-7-yloxy)ethanone]
O=C(Cn1nc2ccccc2n1)N1CCN(c2cc(OC3CCC3)ncn2)CC1 [Example 220, 2-(2H-benzo[d][1,2,3]triazol-2-yl)-1-(4-(6-cyclobutoxypyrimidin-4-yl)piperazin-1-yl)ethanone]
CCOc1cccc(C(=O)N2CCN(c3cc(OCC(C)C)ncn3)CC2)n1 [Example 231, (6-ethoxypyridin-2-yl)(4-(6-isobutoxypyrimidn-4-yl)piperazin-1-yl)methanone]
O=C(Cc1noc2ccccc12)N1CCN(c2cc(OCC(F)(F)F)ncn2)CC1 [Example 107, 2-(benzo[d]isoxazol-3-yl)-1-(4-(6-(2,2,2-trifluoroethoxy)pyrimidin-4-yl)piperazin-1-yl)ethanone]
CC(C)COc1cc(N2CCN(C(=O)c3cnc4ccccc4n3)CC2)ncn1 [Example 34, (4-(6-isobutoxypyrimidin-4-yl)piperazin-1-yl)(quinoxalin-2-yl)methanone]
CC(C)COc1cc(N2CCN(C(=O)c3ccc(-n4cccn4)cc3)CC2)ncn1 [Example 93, (4-(1H-pyrazol-1-yl)phenyl)(4-(6-isobutoxypyrimidin-4-yl)piperazin-1-yl)methanone]
CC(C)COc1cc(N2CCN(C(=O)COc3cccc4ncccc34)CC2)ncn1 [Example 78, 1-(4-(6-isobutoxypyrimidin-4-yl)piperazin-1-yl)-2-(quinolin-5-yloxy)ethanone]
CC(C)COc1cc(N2CCN(C(=O)COCc3ccccc3)CC2)ncn1 [Example 106, 2-(benzyloxy)-1-(4-(6-isobutoxypyrimidin-4-yl)piperazin-1-yl)ethanone]
O=C(CCOc1ccc(F)cc1)N1CCN(c2cc(OC3CCC3)ncn2)CC1 [Example 140, 1-(4-(6-cylcobutoxypyrimidin-4-yl)piperazin-1-yl)-3-(4-fluorophenoxy)propan-1-one]
Cc1nn(-c2ccccc2)nc1C(=O)N1CCN(c2cc(OCC(C)C)ncn2)CC1 [Example 182, (4-(6-isobutoxypyrimidin-4-yl)piperazin-1-yl)(5-methyl-2-phenyl-2H-1,2,3-triazol-4-yl)methanone]
CC(C)COc1cc(N2CCN(C(=O)Cc3cn(C)c4ccccc34)CC2)ncn1 [Example 101, 1-(4-(6-isobutoxypyrimidin-4-yl)piperazin-1-yl)-2-(1-methyl-1H-indol-3-yl)ethanone]
COc1ccccc1-n1cc(C(=O)N2CCN(c3cc(OCC(C)C)ncn3)CC2)cn1 [Example 183, (4-(6-isobutoxypyrimidin-4-yl)piperazin-1-yl)(1-(2-methoxyphenyl)-1H-pyrazol-4-yl)methanone]
CC(C)COc1cc(N2CCN(C(=O)c3csc(-c4ccccn4)n3)CC2)ncn1 [Example 191, (4-(6-isobutoxypyrimidin-4-yl)piperazin-1-yl)(2-(pyridin-2-yl)thiazol-4-yl)methanone]
CCn1nc(C(=O)N2CCN(c3cc(OCC(C)C)ncn3)CC2)cc1C(F)(F)F [Example 228, (1-ethyl-5-(trifluoromethyl)-1H-pyrazol-3-yl)(4-(6-isobutoxypyrimidin-4-yl)piperazin-1-yl)methanone]
CC(C)COc1cc(N2CCN(C(=O)c3csc(-c4cccnc4)n3)CC2)ncn1 [Example 190, (4-(6-isobutoxypyrimidin-4-yl)piperazin-1-yl)(2-(pyridin-3-yl)thiazol-4-yl)methanone]
CC(C)COc1cc(N2CCN(C(=O)c3cnn(-c4ccccc4)c3)CC2)ncn1 [Example 215, (4-(6-isobutoxypyrimidin-4-yl)piperazin-1-yl)(1-phenyl-1H-pyrazol-4-yl)methanone]
COCCn1c(C(=O)N2CCN(c3cc(OCC(C)C)ncn3)CC2)cc2ccccc21 [Example 62, (4-(6-isobutoxypyrimidin-4-yl)piperazin-1-yl)(1-(2-methoxyethyl)-1H-indol-2-yl)methanone]
CC(C)COc1cc(N2CCN(C(=O)c3csc(C(C)C)n3)CC2)ncn1 [Example 233, (4-(6-isobutoxypyrimidin-4-yl)piperazin-1-yl)(2-isopropylthiazol-4-yl)methanone]
CC(C)COc1cc(N2CCN(C(=O)c3nn(C)c4ccc(F)cc34)CC2)ncn1 [Example 209, (5-fluoro-1-methyl-1H-indazol-3-yl)(4-(6-isobutoxypyrimidin-4-yl)piperazin-1-yl)methanone]
CC(C)COc1cc(N2CCN(C(=O)Cc3noc4ccccc34)CC2)ncn1 [Example 58, 2-(benzo[d]isoxazol-3-yl)-1-(4-(6-isobutoxypyrimidin-4-yl)piperazin-1-yl)ethanone]
O=C(COc1cccc(F)c1)N1CCN(c2cc(OCC(F)(F)F)ncn2)CC1 [Example 155, 2-(3-fluorophenoxy)-1-(4-(6-(2,2,2-trifluoroethoxy)pyrimidin-4-yl)piperazin-1-yl)ethanone]
Cn1nc(C(=O)N2CCN(c3cc(OCC(F)(F)F)ncn3)CC2)cc1C(F)(F)F [Example 29, (1-methyl-5-(trifluoromethyl)-1H-pyrazol-3-yl)(4-(6-(2,2,2-trifluoroethoxy)pyrimidin-4-yl)piperazin-1-yl)methanone]

target: T2, human Nav1.7 (Homo sapiens, UniProt Q15858); test: FRET assay (EFS, FDSS) on CHO cells expressing human NaV1.7 channels; type: cell-based; conditions: FRET assay, CHO cells expressing human NaV1.7; read-out: IC50 against Nav1.7
T2 construct: expressed in transfected cells; host or cells: CHO
Method: as §1
CHO cells expressing human NaV1.7 channels were grown in T225 flasks, in a 5% CO2 humidified incubator to about 80% confluence. Media composition consisted of HAM/F12 with Glutamax I, 10% FCS, 100 units/ml Penicillin and 100 microgram/ml Hygromycin.
as §2, §3, §4

T2 sequence (Q15858 whole entry): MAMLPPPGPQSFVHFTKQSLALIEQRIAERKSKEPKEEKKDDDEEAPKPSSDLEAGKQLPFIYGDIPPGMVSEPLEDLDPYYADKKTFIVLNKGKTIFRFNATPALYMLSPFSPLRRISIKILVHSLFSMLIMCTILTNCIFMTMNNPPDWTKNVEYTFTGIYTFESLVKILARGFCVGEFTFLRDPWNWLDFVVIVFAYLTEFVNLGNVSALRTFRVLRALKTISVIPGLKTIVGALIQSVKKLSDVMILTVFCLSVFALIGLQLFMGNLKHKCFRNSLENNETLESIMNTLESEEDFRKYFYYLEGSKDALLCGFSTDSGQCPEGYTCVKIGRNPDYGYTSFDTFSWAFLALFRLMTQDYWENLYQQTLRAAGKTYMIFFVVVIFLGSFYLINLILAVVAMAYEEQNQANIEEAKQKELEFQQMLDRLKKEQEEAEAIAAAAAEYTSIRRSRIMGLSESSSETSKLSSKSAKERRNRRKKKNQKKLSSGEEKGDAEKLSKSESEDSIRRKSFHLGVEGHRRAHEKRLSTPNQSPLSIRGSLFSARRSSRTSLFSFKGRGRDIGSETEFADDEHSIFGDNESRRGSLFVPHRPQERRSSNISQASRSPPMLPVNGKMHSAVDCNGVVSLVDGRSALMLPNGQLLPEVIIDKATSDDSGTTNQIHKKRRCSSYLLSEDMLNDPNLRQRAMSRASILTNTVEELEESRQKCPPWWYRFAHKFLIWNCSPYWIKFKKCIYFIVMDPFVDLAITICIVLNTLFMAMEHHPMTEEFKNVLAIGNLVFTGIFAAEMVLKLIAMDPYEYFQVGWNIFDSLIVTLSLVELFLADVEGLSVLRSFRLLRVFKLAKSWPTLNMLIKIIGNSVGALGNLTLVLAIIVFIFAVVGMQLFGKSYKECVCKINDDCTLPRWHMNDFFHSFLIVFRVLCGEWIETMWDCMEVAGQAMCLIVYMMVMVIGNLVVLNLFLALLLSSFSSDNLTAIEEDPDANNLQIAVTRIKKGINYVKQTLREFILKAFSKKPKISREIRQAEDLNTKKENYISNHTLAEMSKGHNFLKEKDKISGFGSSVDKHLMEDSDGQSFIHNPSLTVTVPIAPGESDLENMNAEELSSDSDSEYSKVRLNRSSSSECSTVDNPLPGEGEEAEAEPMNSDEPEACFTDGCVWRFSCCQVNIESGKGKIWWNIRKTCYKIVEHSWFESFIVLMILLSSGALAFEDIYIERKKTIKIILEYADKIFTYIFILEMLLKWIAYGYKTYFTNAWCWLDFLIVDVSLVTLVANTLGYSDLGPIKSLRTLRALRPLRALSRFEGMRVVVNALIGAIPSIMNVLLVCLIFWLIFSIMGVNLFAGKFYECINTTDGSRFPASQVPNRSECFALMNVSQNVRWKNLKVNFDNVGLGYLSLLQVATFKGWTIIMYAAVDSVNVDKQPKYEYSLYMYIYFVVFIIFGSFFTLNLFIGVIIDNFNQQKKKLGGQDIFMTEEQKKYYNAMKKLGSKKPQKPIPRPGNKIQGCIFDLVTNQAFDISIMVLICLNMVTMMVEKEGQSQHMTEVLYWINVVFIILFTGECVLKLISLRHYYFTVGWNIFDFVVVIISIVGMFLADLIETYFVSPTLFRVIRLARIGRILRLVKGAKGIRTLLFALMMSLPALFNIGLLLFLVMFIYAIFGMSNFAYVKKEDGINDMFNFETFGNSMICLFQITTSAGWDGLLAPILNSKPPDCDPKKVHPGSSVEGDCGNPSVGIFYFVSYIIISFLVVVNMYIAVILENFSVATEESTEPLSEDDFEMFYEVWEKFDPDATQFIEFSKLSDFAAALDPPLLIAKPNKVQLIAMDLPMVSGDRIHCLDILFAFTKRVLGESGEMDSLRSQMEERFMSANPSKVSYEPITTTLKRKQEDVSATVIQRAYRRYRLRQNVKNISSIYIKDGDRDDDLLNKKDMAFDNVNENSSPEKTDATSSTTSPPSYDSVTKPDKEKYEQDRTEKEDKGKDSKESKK

IC50, < 3 µM:
CC(C)COc1cc(N2CCN(C(=O)COc3ccccc3C(F)(F)F)CC2)ncn1 [Example 143, 1-(4-(6-isobutoxypyrimidin-4-yl)piperazin-1-yl)-2-(2-(trifluoromethyl)phenoxy)ethanone]
CC(C)COc1cc(N2CCN(C(=O)c3ccc(Cl)c(F)c3)CC2)ncn1 [Example 39, (4-chloro-3-fluorophenyl)(4-(6-isobutoxypyrimidin-4-yl)piperazin-1-yl)methanone]
O=C(c1ccc2cccc(O)c2n1)N1CCN(c2cc(OCC(F)(F)F)ncn2)CC1 [Example 65, (8-hydroxyquinolin-2-yl)(4-(6-(2,2,2-trifluoroethoxy)pyrimidin-4-yl)piperazin-1-yl)methanone]
CC(C)COc1cc(N2CCN(C(=O)Cc3c[nH]c4ccccc34)CC2)ncn1 [Example 102, 2-(1H-indol-3-yl)-1-(4-(6-isobutoxypyrimidin-4-yl)piperazin-1-yl)ethanone]
CC(C)COc1cc(N2CCN(C(=O)Cn3ccc4ccccc4c3=O)CC2)ncn1 [Example 236, 2-(2-(4-(6-isobutoxypyrimidin-4-yl)piperazin-1-yl)-2-oxoethyl)isoquinolin-1(2H)-one]
